Reference: patent US9023767B2, “γ-Secretase substrates and methods of use” (Memorial Sloan-Kettering Cancer Center, priority 2009, dated 2015)
Several values for one entry are separate records, joined by “and”; a condition that tells them apart may be missing. Equal values may be shown once.

What was measured:
γ-secretase [1] = target: T1, γ-secretase (Homo sapiens (Human), UniProt P49768); assay: In vitro γ-secretase assay, solubilized γ-secretase, ECL; format: biochemical; settings: Sb4 substrate
Excerpt: The γ-secretase cleaved Aβ product derived from C100Flag substrate was detected by a pair of antibodies (biotinylated 4G8 and ruthenylated G2-10*) while Sb4 cleaved product was detected by ruthenylated G2-10* alone (FIG. 10a) and quantified using electrochemiluminescence (ECL) technology.
An in vitro assay was based on the one previously reported by Li et al. (2000), except we utilized Sb4 substrate that eliminated the need for biotinylated antibody. […] All assays incorporate ruthenylated G2-10* antibody to detect 40-site cleavage of APP or recombinant Sb4 substrate and quantitated activity by measuring ECL.

γ-secretase [2] = target: T2, γ-secretase (Mus musculus (Mouse), UniProt P49769); assay: Cell-based activity assay, N2A cells stably over-expressing APP; settings: 24 hrs, Aβ40; read-out: Cell-based (nM), IC50
Protocol: (§1) The potency of two structurally different GSIs was assayed in four unique γ-secretase activity assays. IC50 values were determined from the dose response curves using a non-linear regression analysis in the Prism software. An in vitro assay was based on the one previously reported by Li et al. (2000), except we utilized Sb4 substrate that eliminated the need for biotinylated antibody. The cell-based activity assay used N2A mouse neuroblastoma cells stably over-expressing APP and a biotinylated 4G8 antibody that binds the C-terminus of the amyloid beta peptide. The exo-cell assay incubated HeLa cells simultaneously with GSI, Sb4 substrate as well as 0.25% CHAPSO detergent prior to detecting substrate cleavage. Finally, the extended exo-cell assay first incubated HeLa cells with GSI for 24 hrs. Subsequently, the cells were washed 1× in PBS and then incubated with Sb4 substrate and CHAPSO detergent. The assay was then carried out exactly as described for the original exo-cell method. All assays incorporate ruthenylated G2-10* antibody to detect 40-site cleavage of APP or recombinant Sb4 substrate and quantitated activity by measuring ECL. The latter assays were performed as previously described (Li et al., 2000). In the in vitro assay, recombinant Sb4 substrate was incubated for 2.5 hours at 37° C. in pH 7.0 PIPES buffer in the presence of 0.25% CHAPSO detergent and solubilized γ-secretase at a final concentration of 40 ng/ul. The detection of cleaved substrate was determined using ruthenylated G2-10* antibody. Since the Sb4 substrate is biotinylated additional 6E10 biotinylated antibody used in earlier assays is not required. In the cell-based assay, N2A mouse neuroblastoma cells that stably overexpress amyloid precursor protein were incubated with γ-secretase inhibitors in a final concentration of 1% DMSO for 24 hrs. Following incubation, the supernatant was removed from the cells and assayed for Aβ40, the cleaved APP product, using ruthenylated G2-10* antibody as well as biotinylated 4G8 antibody.

γ-secretase [3] = target: T1, γ-secretase; assay: Exo-cell γ-secretase assay, HeLa cells, Sb4 substrate; format: cell-based
Protocol: Therefore, HeLa cells were first incubated with Sb4 substrate, as well as CHAPSO detergent as depicted in FIG. 14c. Cells were seeded at their indicated concentration in 96-well plates and allowed to attach overnight. The next day, media was removed and cells were washed once with PBS. Fresh media was then added containing 0.25% CHAPSO detergent, Sb4 substrate to a final concentration of 1 μM, and 1% DMSO or γ-secretase inhibitor. This was incubated for 2.5 hours at 37° C. Media was removed and cell debris was pelleted from this media for 5 min. at 3,500 rpm. Supernatant was then added to ruthenylated G2-10* antibody that recognizes cleaved product, but not uncleaved substrate. This was incubated for an additional 2 hours at room temperature. Finally, magnetic streptavidin beads were added to a final concentration of 80 μg/ml and incubated for 30 min. at room temperature. Assay buffer was added to the samples and γ-secretase-mediated cleavage of substrate was monitored using electrochemiluminescence (ECL) (Li et al., 2000). (FIG. 14c).
as §1

γ-secretase [4] = target: T1, γ-secretase; assay: Extended exo-cell γ-secretase assay, HeLa cells; format: cell-based; settings: 24 hrs pretreatment; read-out: Extended Exo-Cell (nM), IC50
Protocol: as §1, with “In the cell-based assay, N2A mouse neuroblastoma cells that stably overexpress amyloid precursor protein were incubated with γ-secretase inhibitors in a final concentration of 1% DMSO for 24 hrs. Following incubation, the supernatant was removed from the cells and assayed for Aβ40, the cleaved APP product, using ruthenylated G2-10* antibody as well as biotinylated 4G8 antibody.” left out
The exo-cell assay was adapted to monitor real-time γ-secretase activity and inhibition over extended times of pretreatment regimens. […] This modified, extended treatment exo-cell assay is capable of quantifying remaining γ-secretase activity following drug treatment on virtually any cell type. The IC50 values for Compound E and GSI-34 were calculated using the extended exo-cell assay (Table 3 and FIG. 15d). […]

A20 mouse lymphoma cells = assay: Lymphoma cell proliferation assay, [3H]thymidine incorporation; format: cell-based; settings: 48 hours
Protocol: For a lymphoma cell proliferation assay, A20 mouse lymphoma cells were seeded in a 96-well plate at a concentration of 5×10^5 cells/ml in 100 μl RPMI media containing 2% fetal bovine serum. An additional 100 μl of media containing DMSO or γ-secretase inhibitor was added and incubated for 48 hours at 37° C. After this incubation, the cells were incubated for 5 hours with 2 μCi/ml [^3H]thymidine at 37° C. Proliferative response was then evaluated by harvesting the tritiated DNA from cells using a Skatron cell harvester and proliferation assessed as a function of [^3H]thymidine incorporation measured on a β-counter.

γ-secretase [5] = target: T2, γ-secretase; assay: Cellular γ-secretase activity, secreted Aβ40 from N2A APP stable cells; format: cell-based; settings: 48 hrs
Protocol: FIG. 5. […] The conditioned media were collected and secreted Aβ40 was measured with 6E10/G2-10 antibodies (mean±SEM; n=3). The activities of the peptide treatments were normalized to the DMSO treatment. […] The same experiments were performed as FIG. 5c. The cell lysates were analyzed by CT-15 antibody. Upper panel: full length APP. Lower panel: CTFs. […] The ΔE-Notch1 (a Notch construct with deletion of the extracellular portion and tagged by Myc) was transfected into HEK293 cells.
After transfection or compound treatment, conditioned cell media were collected and diluted in RIPA buffer. Secreted Aβ peptides were detected by ECL assay using biotinylated 6E10 and ruthenylated G2-10 antibodies.

γ-secretase [6] = target: T3, γ-secretase (Homo sapiens (Human), UniProt P49768+Q92542); assay: In vitro γ-secretase assay, HeLa membrane, APP-derived substrates, ECL detection; format: biochemical
Protocol: The recombinant proteins were incubated with γ-secretase (40 μg/ml) in the presence or absence of 1 μM γ-secretase inhibitor L-685,458 (CAS [292632-98-5], shown below). The reaction mixture contains 0.25% 3[(3-cholamidopropyl) dimethylammonio]-2-hydroxypropanesulfonic acid (CHAPSO), 0.1 μg/μl BSA, protease inhibitor, 50 mM PIPES, pH 7.0, 5 mM MgCl2, 5 mM CaCl2 and 150 mM KCl. The reaction was incubated for 2.5 hr at 37° C. and stopped by adding RIPA buffer (150 mM NaCl, 1.0% NP-40, 0.5% sodium
[drawing 1] deoxycholate, 0.1% SDS, 50 mM Tris HCl, pH 8.0). The products were detected with various antibody combinations as previously described (Lai et al., 2003; J. Biol. Chem., 278: 22475-22481; Li et al., 2000, Proc. Natl. Acad. Sci. USA, 97: 6138-6143; Yin et al., 2007, J. Biol. Chem., 282:23639-23644) using electrochemiluminescence (ECL). The amount of product was determined using synthetic peptide or recombinant standards. The Km and Vmax were determined from the Michaelis-Menten equation Michaelis-Menten Kinetics (ν=Vm[S]/([…]; ν: initial rate; Vm: maximum velocity; Km: the Michaelis-Menten constant, S: substrate). P-values were calculated from Student t-test. 7.1.5 Cell-Based Aβ Production Assay and Western Blot

γ-secretase [7] = target: T3, γ-secretase; assay: In vitro γ-secretase cleavage of Notch1 peptide substrate, HeLa membrane, Val1744 antibody; format: biochemical
Protocol: FIG. 4. […] Various concentrations of inhibitor were incubated with APP substrate (S4) or Notch peptide substrate containing the C-terminal biotinylated transmembrane domain of Notch1 and HeLa cell membrane in the presence of 0.25% CHAPSO. Aβ40 was detected by G2-10 antibody. […] Activities are expressed as percentage relative to reading that was produced in DMSO control. […] Various concentrations of S4 substrate were incubated with HeLa membrane in fixed concentrations of inhibitor as indicated. The double reciprocal velocity (1/v) and substrate concentrations (1/S) are plotted to determine the type of inhibition. […] Assays were conducted as described in FIG. 4A. […] The labeled samples were solubilized with RIPA buffer. Biotinylated proteins were captured with streptavidin-agarose and probed by immunoblotting using antibodies against biotin, PS1-CTF, PS1-NTF, Nicastrin, PEN-2 and APH-1a. HeLa cell membrane proteins were directly loaded onto lanes indicated by an arrow in the PEN-2 and APH-1a blots as positive controls. […] Upper panel: PS1-NTF; Lower panel: PS1-CTF. […] Rev.

γ-secretase [8] = target: T2, γ-secretase; assay: In vitro γ-secretase activity from mouse brain membrane; format: biochemical
Protocol: (§2) FIG. 3. Effect of the inhibitory domain on in vitro γ-secretase activity. […] The γ-secretase cleavage site is indicated by an arrow between orange and blue shades. The Aβ17-23 region is marked by dotted square. (B) The kinetic analyses of γ-secretase reactivity with βCTF and βCTFΔ substrates. […] The product Aβ40 was assayed with biotinylated 6E10 and ruthenylated G2-10 antibodies by ECL. […] Note: […] The product Aβ38 was assayed with biotinylated 6E10 and ruthenylated Aβ38 antibodies (purchased from Dr. […]) (data represent the mean of duplicates with variance<10%). (E) The effect of an inhibitory domain on γ-secretase activity for ACID production. HEK293 cell membrane was prepared from cells that have been transfected with β[…] et al., 1999) and βCTFΔ(SPA4CTΔ) constructs for 48 hours. Cell membranes (2 mg/ml) were incubated in the absence and presence of 2 μM L-685,458 and then analyzed by Western blotting with CT-15 antibody (Chen et al., 2002). It was next determined whether γ-secretase from other sources has the same preference for the βCTFΔ substrate. […] Product formation was monitored by G2-10 and G2-11 antibodies, respectively. […] In addition, the γ-secretase activity was assayed for Aβ38 production and ε-cleavage (FIGS. 3D and 3E). The Aβ38-site cleavage was detected with a combination of biotinylated 6E10 and ruthenylated anti-Aβ38 antibodies. […]

γ-secretase [9] = target: T1, γ-secretase; assay: AICD production (ε-cleavage), membranes of transfected HEK293 cells, Western blot; format: biochemical
Protocol: as §2

O=C(COc1ccc(F)cc1)Nc1ccc2c(c1)CC1CCC(C2)C1NS(=O)(=O)c1ccc(Cl)s1 (centres unmarked) [GSI-34]
IC50 (γ-secretase [1]): 1 nM | IC50 (γ-secretase [2]): 32.4 nM | IC50 (γ-secretase [3]; ECL detection, read-out: Exo-Cell (nM), IC50): 5.9 nM | IC50 (γ-secretase [3]; HTRF detection, read-out: IC50, exo-cell assay): 5.4 nM | IC50 (γ-secretase [4]): 38.7 nM and 39 nM | reduction of cellular proliferation (A20 mouse lymphoma cells; 300 nM): 30% | inhibition of cellular proliferation (A20 mouse lymphoma cells): able to inhibit cellular proliferation

COC(=O)CC[C@@H](NC(=O)[C@H](N)CC(=O)OC)C(=O)N[C@H](C)C(=O)N[C@H](Cc1ccccc1)C(=O)N[C@H](Cc1ccccc1)C(=O)N[C@@H](C(=O)N[C@H](CC(C)C)C(N)=O)C(C)C [RI-PM-1]
inhibition at 100 µM (γ-secretase [5]; 100 μM, read-out: inhibition of the production of Aβ): 70% | effect on secreted Aβ species (γ-secretase [5]; 100, 60 and 30 μM): reduces secreted Aβ species in a dose dependent manner

VKSEPVEPPL [S2-site derived Notch peptide, N-terminal residues of NEXT]
inhibition of γ-secretase activity, APP processing (γ-secretase [6]): did not inhibit | inhibition of γ-secretase activity, Notch processing (γ-secretase [7]): did not inhibit

B1: βCTFΔ: βCTF in which the Aβ17-23 inhibitory domain is deleted (protein, listed as Homo sapiens)
chain: GSHMDAEFRHDSGYEVHHQKVGSNKGAIIGLMVGGVVIATVIVITLVMLKKKQYTSIHHGVVEVDAAVTPEERHLSKMQQNGYENPTYKFFEQMQNDYKDDDDK
reaction rate of hydrolysis compared to βCTF, 40-site (γ-secretase [8]; G2-10): 25 times | reaction rate of hydrolysis compared to βCTF, 42-site (γ-secretase [8]; G2-11): 11 times | effect of domain deletion on ε-cleavage (AICD) (γ-secretase [9]): no effect
